Measured values published in the NIST ThermoML archive (doi:10.1016/j.tca.2014.03.038).
± gives the expanded uncertainty stated by the source.

Assays:
[1] = 101.33 kPa, Liquid; for mass density: Pycnometric method; for speed of sound: multifrequency ultrasonic interferometer
[2] = xn = mol fraction of the nth substance listed; conditions: 101 kPa, Liquid; for mass density: Pycnometric method; for speed of sound: multifrequency ultrasonic interferometer

CO [methanol]
[1]
Conditions | mass density [kg/m3] | speed of sound [m/s]
298.15 K | 786.74 ± 0.24 | 1100.7 ± 0.2
308.15 K | 777.45 ± 0.26 | 1068.2 ± 0.2
318.15 K | 768.01 ± 0.29 | 1037 ± 0.2

CN(C)CCO [2-(N,N-dimethylamino)ethanol] + CO
[2]
Conditions | mass density, 298.15 K [kg/m3] | mass density, 308.15 K [kg/m3] | mass density, 318.15 K [kg/m3] | speed of sound, 298.15 K [m/s] | speed of sound, 308.15 K [m/s] | speed of sound, 318.15 K [m/s]
x1 = 0.0971 | 814.11 ± 0.26 | 806.11 ± 0.28 | 797.9 ± 0.31 | 1152.4 ± 0.5 | 1126.7 ± 0.5 | 1101.6 ± 0.5
x1 = 0.1983 | 835.29 ± 0.27 | 827.54 ± 0.3 | 819.51 ± 0.32 | 1204.7 ± 0.5 | 1180.5 ± 0.5 | 1156.2 ± 0.5
x1 = 0.2962 | 850.65 ± 0.28 | 842.65 ± 0.31 | 834.22 ± 0.34 | 1249.8 ± 0.6 | 1225.3 ± 0.6 | 1199.5 ± 0.6
x1 = 0.4039 | 862.04 ± 0.3 | 853.81 ± 0.32 | 845.26 ± 0.35 | 1290.2 ± 0.6 | 1265.5 ± 0.6 | 1238.9 ± 0.6
x1 = 0.502 | 868.4 ± 0.31 | 860.4 ± 0.34 | 852.01 ± 0.36 | 1312 ± 0.6 | 1288.1 ± 0.6 | 1261.3 ± 0.6
x1 = 0.607 | 873.13 ± 0.33 | 865.13 ± 0.35 | 856.89 ± 0.38 | 1322.4 ± 0.7 | 1299.3 ± 0.7 | 1272.9 ± 0.7
x1 = 0.7075 | 876.61 ± 0.34 | 868.67 ± 0.37 | 860.58 ± 0.39 | 1326.9 ± 0.7 | 1301.3 ± 0.7 | 1273.6 ± 0.7
x1 = 0.7999 | 879.06 ± 0.36 | 871.15 ± 0.38 | 862.98 ± 0.41 | 1330.6 ± 0.8 | 1303.1 ± 0.8 | 1273.9 ± 0.8
x1 = 0.9015 | 881.19 ± 0.38 | 873.28 ± 0.4 | 865.23 ± 0.43 | 1335 ± 0.8 | 1304.2 ± 0.8 | 1274 ± 0.8
x1 = 1 | 883.34 ± 0.4 | 874.99 ± 0.42 | 866.37 ± 0.44 | 1344.4 ± 0.9 | 1309.1 ± 0.9 | 1274.1 ± 0.9

CCO [ethanol] + CN(C)CCO
[2], x2 = 0
Conditions | mass density [kg/m3] | speed of sound [m/s]
298.15 K | 785.48 ± 0.23 | 1143.2 ± 0.4
308.15 K | 776.82 ± 0.26 | 1109.6 ± 0.4
318.15 K | 768.08 ± 0.29 | 1075.5 ± 0.4

CO [methanol] + CN(C)CCO
[2], x2 = 0
Conditions | mass density [kg/m3] | speed of sound [m/s]
298.15 K | 786.74 ± 0.24 | 1100.7 ± 0.5
308.15 K | 777.45 ± 0.26 | 1068.2 ± 0.5
318.15 K | 768.01 ± 0.29 | 1037 ± 0.5

CN(C)CCO [2-(N,N-dimethylamino)ethanol]
[1]
Conditions | mass density [kg/m3] | speed of sound [m/s]
298.15 K | 883.34 ± 0.4 | 1344.4 ± 0.8
308.15 K | 874.99 ± 0.42 | 1309.1 ± 0.8
318.15 K | 866.37 ± 0.44 | 1274.1 ± 0.8

CCO [ethanol]
[1]
Conditions | mass density [kg/m3] | speed of sound [m/s]
298.15 K | 785.48 ± 0.23 | 1143.2 ± 0.1
308.15 K | 776.82 ± 0.26 | 1109.6 ± 0.1
318.15 K | 768.08 ± 0.29 | 1075.5 ± 0.1

CN(C)CCO [2-(N,N-dimethylamino)ethanol] + CCO
[2]
Conditions | mass density, 298.15 K [kg/m3] | mass density, 308.15 K [kg/m3] | mass density, 318.15 K [kg/m3] | speed of sound, 298.15 K [m/s] | speed of sound, 308.15 K [m/s] | speed of sound, 318.15 K [m/s]
x1 = 0.0929 | 803.31 ± 0.24 | 795.34 ± 0.27 | 787.23 ± 0.3 | 1172.7 ± 0.4 | 1141.5 ± 0.4 | 1109.4 ± 0.4
x1 = 0.1972 | 820.2 ± 0.26 | 812.45 ± 0.28 | 804.46 ± 0.31 | 1206.4 ± 0.5 | 1176.1 ± 0.5 | 1144.1 ± 0.5
x1 = 0.3005 | 834.5 ± 0.27 | 826.62 ± 0.29 | 818.61 ± 0.32 | 1236.8 ± 0.5 | 1207.1 ± 0.5 | 1176.3 ± 0.5
x1 = 0.4012 | 846.38 ± 0.28 | 838.41 ± 0.31 | 830.22 ± 0.33 | 1264.9 ± 0.6 | 1234.4 ± 0.6 | 1205.1 ± 0.6
x1 = 0.5051 | 856.62 ± 0.3 | 848.64 ± 0.32 | 840.29 ± 0.35 | 1290.4 ± 0.6 | 1259.8 ± 0.6 | 1231.3 ± 0.6
x1 = 0.6098 | 864.64 ± 0.31 | 856.77 ± 0.34 | 848.47 ± 0.37 | 1309.3 ± 0.7 | 1279.1 ± 0.7 | 1251 ± 0.7
x1 = 0.7086 | 871.01 ± 0.33 | 863.28 ± 0.36 | 854.97 ± 0.38 | 1321 ± 0.7 | 1292 ± 0.7 | 1264.2 ± 0.7
x1 = 0.8031 | 875.81 ± 0.35 | 868.08 ± 0.38 | 859.92 ± 0.4 | 1329.8 ± 0.8 | 1300.4 ± 0.8 | 1271.8 ± 0.8
x1 = 0.9036 | 879.78 ± 0.37 | 871.92 ± 0.4 | 863.76 ± 0.42 | 1336.4 ± 0.8 | 1304.5 ± 0.8 | 1273.3 ± 0.8
x1 = 1 | 883.34 ± 0.4 | 874.99 ± 0.42 | 866.37 ± 0.44 | 1344.4 ± 0.9 | 1309.1 ± 0.9 | 1274.1 ± 0.9
